Patent EP4129284B1, “SERTACONAZOL FOR PROVIDING A SPORISTATIC AND/OR SPORICIDAL EFFECT” (Dr. Pfleger Arzneimittel GmbH, priority 2021, dated 2023)
≈ marks a conversion by molar mass, not a printed value.

Key:
Test in all cases: Microtiter plate laser nephelometry (MLN) growth test
Type in all cases: cell-based
[1] = system: Candida albicans DSM 1386; settings: for IC50: DSM1386, C. albicans (yeast), SGB, 37 °C, 48 h, growth as area under curve vs untreated control; for MIC: DSM1386, C. albicans, plating of wells without visible growth in the MLN-test
Procedure: (§1) To allow a reasonable comparison between antimycotic drugs, the concentrations to be used in the following tests was determined first. Thus, the antimycotic effect was determined by microtiter plate laser nephelometry (MLN).
(§2) MLN is a direct method for measuring light, which is scattered by particles suspended in a solution in angles of up to 90 degree. With this technique, already minor particle concentrations can be determined in a suspension. Thus, this method provides a higher sensitivity than usual transmission readers, which detect the reduction of the intensity of light passing a suspension. Further, it is a very reliable technique for application in a 96-well format. It can be used to monitor the growth of microorganisms by the turbidity of the respective medium and to examine the effect of antimicrobial substances on the growth of microorganisms. Compared to other applied methods, MLN allows high throughput screenings, incubation over a long time and in situ monitoring of changes in the dose-response-curves.
(§3) Moreover, in most techniques, the minimum inhibitory concentration (MIC) can only be determined afterwards, whereas MLN allows the in situ acquisition of dose-response-curves and the simultaneous monitoring of changes in the IC50.
(§4) Candida albicans DSM 1386, Candida parapsilosis DSM 5784, Trichophyton rubrum DSM 16111,Trichophyton interdigitale IHEM 22939, Trichophyton soudanense DSM 103786, and Trichophyton mentagrophytes DSM 107608 were obtained from the DSMZ (German Collection of Microorganisms and Cell Cultures; Deutsche Sammlung von Mikroorganismen und Zellkulturen). Epidermophyton floccosum and Scorpolariopsis brevicaulis were obtained from a round robin test.
(§5) The yeasts were cultivated in Sabouraud-Glucose-Bouillon (SGB; Merck) for 24 h at 37°C at aerobic conditions. Dermatophytes were cultivated on Dermasel-Agarplates (Oxoid) for 3 weeks and subsequently treated with 5 mL sterile, physiological saline solution (Lot 14HD24, Fresenius Kabi Deutschland GmbH) for detaching the spores. The spore suspensions were transferred into sterile 50-ml-tubes (Greiner Bio-One), vortexed for 20 s and separated by cell sieves (40 µm, Greiner Bio-One). Subsequently, the spore number was determined via Neubauer-improved counting chambers and the spore suspension was adjusted to approximately 2 × 10^3/ml in SBG (Merck) for the MLN-experiments.
(§6) Solutions of sertaconazol, ciclopiroxolamin and terbinafin were prepared as 10 µg/µL DMSO (Sigma-Aldrich). The respective test concentrations were then obtained by diluting these solutions in SGB (Merck).
(§7) The MLN-test was then performed according to NCCLS M27-A2 and DIN EN 27027 as previously described (Burmester A, Hipler UC, Uhrlaß S, Nenoff P, Singal A, Verma SB, Elsner P, Wiegand C. Indian Trichophyton mentagrophytes squalene epoxidase erg1 double mutants show high proportion of combined fluconazole and terbinafine resistance. Mycoses. 2020; doi: 10.111 1/myc.13150). […] of the respective dilutions of sertaconazol, ciclopiroxolamin or terbinafin were added to the respective wells of a sterile, clear 96-well microplate (Greiner Bio-One) in quadruplicates together with 100 µL of the microorganism suspensions (as above). Blanks for each analysed substance concentration were added to each assay. The microtiter plates were sealed with a transparent foil (Greiner Bio-One). To allow the gas exchange, a perforation was applied to the right edge of the respective wells. The microtiter plates were then inserted in the microtiter plate laser nephelometer (NEPH-ELOstar Galaxy, BMG Labtech) and incubated at 37 °C while shaking for 48 h (yeasts) or, respectively, 120 h (mold, dermatophytes). For determining the growth of the microorganisms, the turbidity of each analysed substrate concentration was assigned to the incubation time. Subsequently, the area under curve was determined by the results and calculated as percentage of the untreated control (growth [%]). […]

[2] = system: Candida parapsilosis DSM 5784; settings: Lodderomyces parapsilosis, DSM5784; for IC50: C. parapsilosis (yeast), SGB, 37 °C, 48 h, growth as area under curve vs untreated control; for MIC: C. parapsilosis, plating of wells without visible growth in the MLN-test
Procedure: as §1, §2, §3, §4, §5, §6, §7

[3] = system: Epidermophyton floccosum; settings: E. floccosum; for MIC: plating of wells without visible growth in the MLN-test; for IC50: spore suspension in SGB, 37 °C, 120 h, growth as area under curve vs untreated control
Procedure: as §1, §2, §3, §4, §5, §6, §7

[4] = system: S. brevicaulis; settings: Scopulariopsis brevicaulis; for IC50: S. brevicaulis (mold), SGB, 37 °C, 120 h, growth as area under curve vs untreated control; for MIC: S. brevicaulis, plating of wells without visible growth in the MLN-test
Procedure: as §1, §2, §3, §4, §5, §6, §7

[5] = system: Trichophyton interdigitale IHEM 22939; settings: IHEM22939, T. interdigitale; for MIC: plating of wells without visible growth in the MLN-test; for IC50: spore suspension in SGB, 37 °C, 120 h, growth as area under curve vs untreated control
Procedure: as §1, §2, §3, §4, §5, §6, §7

[6] = system: Trichophyton mentagrophytes DSM 107608; settings: DSM107608, T. mentagrophytes; for MIC: plating of wells without visible growth in the MLN-test; for IC50: spore suspension in SGB, 37 °C, 120 h, growth as area under curve vs untreated control
Procedure: as §1, §2, §3, §4, §5, §6, §7

[7] = system: Trichophyton rubrum DSM 16111; settings: DSM16111, T. rubrum; for MIC: plating of wells without visible growth in the MLN-test; for IC50: spore suspension in SGB, 37 °C, 120 h, growth as area under curve vs untreated control
Procedure: as §1, §2, §3, §4, §5, §6, §7

[8] = system: Trichophyton soudanense DSM 103786; settings: DSM103786, T. soudanense; for MIC: plating of wells without visible growth in the MLN-test; for IC50: spore suspension in SGB, 37 °C, 120 h, growth as area under curve vs untreated control
Procedure: as §1, §2, §3, §4, §5, §6, §7

Row | SMILES | IC50 [1] [µg/mL] | MIC [1] [µg/mL] | IC50 [2] [µg/mL] | MIC [2] [µg/mL] | MIC [3] [µg/mL] | IC50 [3] [µg/mL] | IC50 [4] [µg/mL] | MIC [4] [µg/mL] | MIC [5] [µg/mL] | IC50 [5] [µg/mL] | MIC [6] [µg/mL] | IC50 [6] [µg/mL] | MIC [7] [µg/mL] | IC50 [7] [µg/mL] | MIC [8] [µg/mL] | IC50 [8] [µg/mL]
1 | Cc1cc(C2CCCCC2)n(O)c(=O)c1 [Ciclopiroxolamin, ciclopiroxolamin] | 4.01 ± 0.71 (≈ 19.3 µM) | 40 (≈ 193 µM) | 4.73 ± 0.09 (≈ 22.8 µM) | 80 (≈ 386 µM) | 7.5 (≈ 36.2 µM) | 1.46 ± 0.22 (≈ 7.04 µM) | 4.85 ± 1.79 (≈ 23.4 µM) | 60 (≈ 289 µM) | 10 (≈ 48.2 µM) | 2.62 ± 0.62 (≈ 12.6 µM) | 10 (≈ 48.2 µM) | 2.09 ± 0.78 (≈ 10.1 µM) | 10 (≈ 48.2 µM) | 1.02 ± 0.22 (≈ 4.92 µM) | 5.5 (≈ 26.5 µM) | 1.43 ± 0.78 (≈ 6.9 µM)
2 | CN(C/C=C/C#CC(C)(C)C)Cc1cccc2ccccc12 [Terbinafin, terbinafin] | 24.2 ± 2.99 (≈ 82.9 µM) | – | 0.098 ± 0.002 (≈ 0.336 µM) | 3.8 (≈ 13 µM) | 0.02 (≈ 0.0686 µM) | 0.0021 ± 0.0001 (≈ 0.00721 µM) | 0.69 ± 0.03 (≈ 2.37 µM) | 40 (≈ 137 µM) | 0.02 (≈ 0.0686 µM) | 0.0038 ± 0.0008 (≈ 0.013 µM) | 20 (≈ 68.6 µM) | 4.66 ± 0.04 (≈ 16 µM) | 0.006 (≈ 0.0206 µM) | 0.0015 ± 0.0002 (≈ 0.00515 µM) | 0.015 (≈ 0.0515 µM) | 0.0016 ± 0.0005 (≈ 0.00549 µM)
3 | Clc1ccc(C(Cn2ccnc2)OCc2csc3c(Cl)cccc23)c(Cl)c1 (centres unmarked) [Sertaconazol, sertaconazol] | 0.54 ± 0.12 (≈ 1.23 µM) | 40 (≈ 91.4 µM) | 0.0025 ± 0.0001 (≈ 0.00571 µM) | 20 (≈ 45.7 µM) | 1.6 (≈ 3.65 µM) | 0.022 ± 0.003 (≈ 0.0503 µM) | 0.11 ± 0.03 (≈ 0.251 µM) | 7.5 (≈ 17.1 µM) | 12.5 (≈ 28.6 µM) | 0.39 ± 0.01 (≈ 0.891 µM) | 3.8 (≈ 8.68 µM) | 0.018 ± 0.003 (≈ 0.0411 µM) | 1.3 (≈ 2.97 µM) | 0.0028 ± 0.0003 (≈ 0.0064 µM) | 3.1 (≈ 7.08 µM) | 0.0014 ± 0.0001 (≈ 0.0032 µM)
